Reference: patent US20210330611A1, “THERAPY FOR NEUROLOGICAL DISEASES/DISORDERS” (priority 2020, published 2021)
Structures can show the parent of a compound that is named as a salt. Where two headings read alike, the source gives them in different places.

What was measured:
[1] = test system: fibrin-induced microglia activation; experiment: Image-based assay of fibrin-induced microglia activation (HTS and dose response); type: cell-based, rat; conditions: for inhibition at 10 µM: Rattus norvegicus, Microglia, read-out: Fibrin % inhibition
[2] = test system: LPS-induced microglia activation; experiment: Image-based assay of LPS-induced microglia activation (HTS and dose response); type: cell-based, rat
primary rat microglia [3] = test system: primary rat microglia;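 as to Fibrin % cell toxicity: share of dead cells sized under 150 µm2 at 10 µM in fibrin-stimulated microglia HTS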
primary rat microglia [4] = test system: primary rat microglia; remark: listed apart in the source;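 as to Fibrin % cell toxicity: share of dead cells sized under 150 µm2 at 10 µM in fibrin-stimulated microglia HTS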
[5] = test system: fibrin- and LPS-induced microglia activation; experiment: cells; type: cell-based, rat
[6] = primary microglia HTS, fibrin stimulation, cell size >800 μm2 as marker of activation
[7] = Rattus norvegicus, Microglia, 48 h; read-out: LPS % inhibition
[8] = classification by fibrin and LPS inhibition in HTS
[9] = primary microglia HTS, fibrin stimulation, compounds at 10 μM
[10] = Rattus norvegicus, Microglia, primary microglia HTS, LPS stimulation, compounds at 10 μM; read-out: LPS % inhibition
[11] = quadrant by fibrin and LPS inhibition, HTS at 10 μM
[12] = primary microglia HTS, 10 μM, fibrin-stimulated, cell size >800 μm^2 as marker of activation
[13] = Rattus norvegicus, Microglia, primary microglia HTS, 10 μM, LPS-stimulated, cell size >800 μm^2 as marker of activation; read-out: LPS % inhibition
[14] = HTS of 1907 compounds, quadrant by fibrin and LPS inhibition
[15] = Rattus norvegicus, Microglia, read-out: LPS % inhibition

SMILES	inhibition at 10 µM [1, 6]	Fibrin % cell toxicity (primary rat microglia [3]; rat)	LPS % cell toxicity (primary rat microglia [4]; rat)	Quadrant (FIG. 5b) [5, 8]	inhibition at 10 µM [1, 12]	inhibition at 10 µM [2, 13]	Quadrant (FIG. 5b) [5, 14]	further results
CC(C)c1nc(CN(C)C(=O)N[C@H](C(=O)N[C@@H](Cc2ccccc2)C[C@H](O)[C@H](Cc2ccccc2)NC(=O)OCc2cncs2)C(C)C)cs1 [Ritonavir]	-8%	0%	0%	Q4	–	–	–	inhibition at 10 µM [2, 7]: 11%
CCCN1CCCC[C@H]1C(=O)Nc1c(C)cccc1C [Ropivacaine, Ropivacaine Hydrochloride]	–	–	–	Q4	–	–	–	Fibrin % inhibition [1, 6]: 18%; LPS % inhibition [2]: 5%; Fibrin % cell toxicity (primary rat microglia [3]): 1%; LPS % cell toxicity (primary rat microglia [4]): 0%
CN(CCOc1ccc(CC2SC(=O)NC2=O)cc1)c1ccccn1 (stereo not shown) [Rosiglitazone, Rosiglitazone Maleate]	–	–	–	–	–	–	–	Fibrin % inhibition [1]: 5%; LPS % inhibition [2]: 20%; Fibrin % cell toxicity (primary rat microglia [3]): 1%; LPS % cell toxicity (primary rat microglia [4]): 1%; Quadrant (FIG. 5b) [5]: Q4
O=C1NS(=O)(=O)c2ccccc21 [Saccharin]	–	0%	0%	–	–	–	–	inhibition at 10 µM [1]: -8%; inhibition at 10 µM ([2]; Rattus norvegicus, Microglia, 48 h, read-out: LPS % inhibition): 11%; Quadrant (FIG. 5b) [5]: Q4
CC(C)(C)NCC(O)c1ccc(O)c(CO)c1 (stereo not shown) [Salbutamol]	25%	1%	0%	Q4	–	–	–	inhibition at 10 µM [2, 7]: 25%
NC(=O)c1ccccc1O [Salicylamide]	-20%	1%	1%	Q4	–	–	–	inhibition at 10 µM [2, 7]: 16%
CC1CCC(NC(=O)N(CCCl)N=O)CC1 (stereo not shown) [Semustine]	-7%	1%	0%	Q4	–	–	–	inhibition at 10 µM [2, 7]: 18%
CC(C)CC(N(C)C)C1(c2ccc(Cl)cc2)CCC1 (stereo not shown) [Sibutramine]	-12%	1%	0%	Q4	–	–	–	inhibition at 10 µM ([2]; Rattus norvegicus, Microglia, 48 h, primary microglia HTS, LPS stimulation, cell size >800 μm2 as marker of activation; read-out: LPS % inhibition): 8%
CO[C@H]1C[C@@H]2CC[C@@H](C)[C@@](O)(O2)C(=O)C(=O)N2CCCC[C@H]2C(=O)O[C@H]([C@H](C)C[C@@H]2CC[C@@H](O)[C@H](OC)C2)CC(=O)[C@H](C)/C=C(\C)[C@@H](O)[C@@H](OC)C(=O)[C@H](C)C[C@H](C)/C=C/C=C/C=C/1C [Sirolimus]	–	4%	1%	–	–	–	–	inhibition at 10 µM [1, 9]: 108%; inhibition at 10 µM [2, 10]: 81%; Quadrant (FIG. 5b) [5, 11]: Q2
O=C([O-])[C@H](O)[C@@H](O)[C@H](O)[C@H](O)CO.[Na+] [Sodium Gluconate]	1%	1%	0%	Q4	–	–	–	inhibition at 10 µM [2, 7]: 11%
CNC(=O)c1cc(Oc2ccc(NC(=O)Nc3ccc(Cl)c(C(F)(F)F)c3)cc2)ccn1 [Sorafenib]	-67%	1%	1%	Q4	–	–	–	inhibition at 10 µM [2, 7]: 35%
CC(C)NCC(O)c1ccc(NS(C)(=O)=O)cc1 (stereo not shown) [Sotalol]	6%	1%	0%	Q4	–	–	–	inhibition at 10 µM [2, 7]: 6%
[H]/N=C(/N)N[C@H]1[C@H](O)[C@@H](O)[C@H](O[C@@H]2O[C@@H](C)[C@](O)(C=O)[C@H]2O[C@@H]2O[C@@H](CO)[C@H](O)[C@@H](O)[C@@H]2NC)[C@@H](N/C(N)=N\[H])[C@@H]1O [Streptomycin Sulfate]	–	0%	0%	–	-46%	13%	Q4	–
O=C1C[C@@H]2OCC=C3CN4CC[C@]56c7ccccc7N1[C@H]5[C@H]2[C@H]3C[C@H]46 [Strychnine]	–	1%	0%	–	–	–	–	inhibition at 10 µM [1]: 1%; inhibition at 10 µM [2, 15]: 18%; Quadrant (FIG. 5b) [5]: Q4
Nc1ccc(S(=O)(=O)Nc2ncccn2)cc1 [Sulfadiazine]	–	0%	0%	–	–	–	–	inhibition at 10 µM [1]: -19%; inhibition at 10 µM [2, 15]: 13%; Quadrant (FIG. 5b) [5]: Q4
Cc1cc(C)nc(NS(=O)(=O)c2ccc(N)cc2)n1 [Sulfamethazine]	–	0%	0%	–	-9%	14%	Q4	–
Nc1ccc(S(=O)(=O)Nc2ccccn2)cc1 [Sulfapyridine]	–	1%	0%	–	-37%	20%	Q4	–
O=C(O)c1cc(/N=N/c2ccc(S(=O)(=O)Nc3ccccn3)cc2)ccc1O [Sulfasalazine]	–	0%	0%	–	-29%	13%	Q4	–
Nc1ccc(S(=O)(=O)Nc2nccs2)cc1 [Sulfathiazole]	–	0%	0%	–	-17%	9%	Q4	–
CC1=C(CC(=O)O)c2cc(F)ccc2/C1=C\c1ccc([S+](C)[O-])cc1 (stereo not shown) [Sulindac]	–	1%	0%	–	21%	6%	Q4	–
CCN(CC)CCNC(=O)c1c(C)[nH]c(/C=C2\C(=O)Nc3ccc(F)cc32)c1C [Sunitinib]	–	75%	27%	–	–	–	–	inhibition at 10 µM [1, 9]: 106%; inhibition at 10 µM [2, 10]: 101%; Quadrant (FIG. 5b) [5, 11]: Q2
O=c1n(Cl)c(=O)n(Cl)c(=O)n1Cl [Symclosene]	–	0%	0%	–	-13%	11%	Q4	–
Nc1c2c(nc3ccccc13)CCCC2 [Tacrine]	–	1%	0%	–	–	–	–	inhibition at 10 µM [1]: -2%; inhibition at 10 µM [2, 15]: 5%; Quadrant (FIG. 5b) [5]: Q4
CC[C@@H](c1cccc(O)c1)[C@@H](C)CN(C)C [Tapentadol Hydrochloride]	–	1%	0%	–	-12%	12%	Q4	–
CC(=O)O[C@H]1C(=O)[C@@]2(C)[C@H]([C@H](OC(=O)c3ccccc3)[C@]3(O)C[C@H](OC(=O)[C@H](O)[C@@H](NC(=O)c4ccccc4)c4ccccc4)C(C)=C1C3(C)C)[C@]1(OC(C)=O)CO[C@@H]1C[C@@H]2O [Taxol, Paclitaxel]	–	–	–	–	–	–	Q4	Fibrin % inhibition [1, 12]: 45%; LPS % inhibition ([2]; primary microglia HTS, 10 μM, LPS-stimulated, cell size >800 μm^2 as marker of activation): 19%; Fibrin % cell toxicity (primary rat microglia [3]): 1%; LPS % cell toxicity (primary rat microglia [4]): 1%
CC[C@H]1OC(=O)[C@H](C)C(=O)[C@H](C)[C@@H](O[C@@H]2O[C@H](C)C[C@H](N(C)C)[C@H]2O)[C@](C)(OC)C[C@@H](C)C(=O)[C@H](C)[C@H]2N(CCCCn3cnc(-c4cccnc4)c3)C(=O)O[C@]12C [Telithromycin]	–	1%	0%	–	0%	17%	Q4	–
